From the NIST ThermoML archive (doi:10.1016/j.jct.2009.06.010)

Legend:
[1] = cn = amount concentration of the nth substance listed, in mol/dm3; conditions: 298.15 K, 101 kPa, Liquid
[2] = mn = molality of the nth substance listed, in mol/kg; conditions: 298.15 K, 101 kPa, Liquid; for viscosity: Capillary tube (Ostwald / Ubbelohde) method; for mass density: Vibrating tube method

CC(=O)[O-].[Na+] [sodium ethanoate] + O
[1]
Conditions | molar conductivity [S·m2/mol]
c1 = 0.0002726 | 0.0088
c1 = 0.0004823 | 0.008807
c1 = 0.0007722 | 0.008806
c1 = 0.0009672 | 0.00879
c1 = 0.001191 | 0.00877
c1 = 0.001382 | 0.00872
c1 = 0.001567 | 0.008739
c1 = 0.001787 | 0.00872
c1 = 0.002055 | 0.008701
c1 = 0.002254 | 0.00869
c1 = 0.002454 | 0.00867
c1 = 0.003305 | 0.00849
c1 = 0.00463 | 0.00842
c1 = 0.006134 | 0.008351
c1 = 0.007784 | 0.00829
c1 = 0.008716 | 0.00826
c1 = 0.01014 | 0.008207
c1 = 0.01138 | 0.00817
c1 = 0.01268 | 0.008135
c1 = 0.01404 | 0.008103
c1 = 0.01528 | 0.00808
c1 = 0.01648 | 0.00806
c1 = 0.01789 | 0.00802
c1 = 0.01915 | 0.008
c1 = 0.02025 | 0.00797
c1 = 0.02164 | 0.007945
c1 = 0.02337 | 0.007911
c1 = 0.02523 | 0.00787
c1 = 0.02696 | 0.007849

CCCC(=O)[O-].[Na+] [sodium butyrate] + O
[1]
Conditions | molar conductivity [S·m2/mol]
c1 = 0.0003234 | 0.00796
c1 = 0.001116 | 0.00795
c1 = 0.001273 | 0.007936
c1 = 0.001488 | 0.007915
c1 = 0.00188 | 0.00788
c1 = 0.00243 | 0.007842
c1 = 0.002454 | 0.00787
c1 = 0.003167 | 0.00766
c1 = 0.006298 | 0.007526
c1 = 0.008849 | 0.007443
c1 = 0.01124 | 0.00737
c1 = 0.01353 | 0.007315
c1 = 0.0155 | 0.00727
c1 = 0.01721 | 0.007239
c1 = 0.01916 | 0.007203
c1 = 0.02091 | 0.00717
c1 = 0.02284 | 0.007137
c1 = 0.02481 | 0.0071
c1 = 0.02647 | 0.00707

NCC(=O)N[C@@H](CCC(N)=O)C(=O)O [glycyl-l-glutamine] + O
[2]
Conditions | mass density [kg/m3] | viscosity [mPa·s]
m1 = 0.03879 | 1000.01 | –
m1 = 0.05 | – | 0.913
m1 = 0.06116 | 1001.7 | –
m1 = 0.08141 | 1003.22 | –
m1 = 0.1 | – | 0.936
m1 = 0.1008 | 1004.66 | –
m1 = 0.1497 | 1008.28 | –
m1 = 0.15 | – | 0.961
m1 = 0.1987 | 1011.85 | –
m1 = 0.2 | – | 0.985
m1 = 0.2522 | 1015.68 | –

C[C@H](N)C(=O)N[C@@H](CCC(N)=O)C(=O)O [L-alanyl-L-glutamine] + O
[2]
Conditions | mass density [kg/m3] | viscosity [mPa·s]
m1 = 0.0401 | 999.957 | –
m1 = 0.05 | – | 0.918
m1 = 0.08086 | 1002.88 | –
m1 = 0.1 | – | 0.948
m1 = 0.1012 | 1004.32 | –
m1 = 0.148 | 1007.6 | –
m1 = 0.15 | – | 0.978
m1 = 0.2 | – | 1.008
m1 = 0.2002 | 1011.17 | –
m1 = 0.2448 | 1014.22 | –
m1 = 0.2993 | 1017.77 | –
